Reference: ChEMBL document CHEMBL1156161, “Assessing the trypanocidal potential of natural and semi-synthetic diketopiperazines from two deep water marine-derived fungi” (Bioorg Med Chem, 2010)
Converted amounts (≈) assume the structure as drawn.

What was measured:
[1] = tested on: Trypanosoma brucei brucei; test: Antitrypanosomal activity against Trypanosoma brucei brucei 427-221a after 40 hrs by bioluminescence assay; assay type: functional, organism-based; settings: for IC50 / EC50: Trypanosoma brucei, 427-221a, 40 h
Rhodesain = Rhodesain (Trypanosoma brucei rhodesiense, UniProt Q95PM0); test: Inhibition of […] after 5 mins by spectrofluorimetry
Rhodesain, sequence (Q95PM0 whole entry): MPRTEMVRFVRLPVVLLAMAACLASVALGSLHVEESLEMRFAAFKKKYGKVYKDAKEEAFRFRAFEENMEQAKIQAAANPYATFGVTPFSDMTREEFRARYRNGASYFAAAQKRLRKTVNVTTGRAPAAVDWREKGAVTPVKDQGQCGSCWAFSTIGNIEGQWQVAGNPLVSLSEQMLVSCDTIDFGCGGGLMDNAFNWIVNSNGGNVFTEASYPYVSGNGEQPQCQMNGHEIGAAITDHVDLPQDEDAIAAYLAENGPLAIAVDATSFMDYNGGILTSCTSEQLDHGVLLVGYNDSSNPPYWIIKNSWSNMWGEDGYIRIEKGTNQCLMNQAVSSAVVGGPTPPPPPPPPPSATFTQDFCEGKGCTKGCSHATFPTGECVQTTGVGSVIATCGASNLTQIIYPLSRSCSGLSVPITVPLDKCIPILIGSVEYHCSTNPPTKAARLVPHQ

[2] = Inhibition of Trypanosoma brucei brucei recombinant cathepsin B assessed after 5 mins by spectrofluorimetry
Jurkat [3] = test: Cytotoxicity against human Jurkat cells after 40 hrs bioluminescence assay; assay type: cell-based
[4] = Selectivity index, ratio of IC50 for human Jurkat cells to IC50 for Trypanosoma brucei brucei; assay type: toxicity, cell-based; settings: for Ratio IC50: jurkat; for selectivity ratio: Jurkat cells, read-out: Ratio IC50
[5] = Inhibition of PAF
[6] = tested on: Trypanosoma brucei rhodesiense; test: Antitrypanosomal activity against Trypanosoma brucei rhodesiense after 40 hrs by bioluminescence assay; assay type: functional
MDA-MB-468 = test: Cytotoxicity against human MDA-MB-468 cells; assay type: functional, cell-based
MCF7 = test: Cytotoxicity against human MCF7 cells; assay type: functional, cell-based
HEK293 = test: Cytotoxicity against HEK293 cells; assay type: cell-based; settings: Homo sapiens
[7] = Selectivity index, ratio of EC50 for HEK293 cells to EC50 for Trypanosoma brucei brucei; assay type: toxicity, cell-based; settings: human, read-out: Ratio EC50
[8] = tested on: Trypanosoma brucei brucei; test: Antitrypanosomal activity against Trypanosoma brucei brucei at 1.25 ug/ml after 40 hrs by bioluminescence assay relative to control; assay type: functional
HeLa = test: Cytotoxicity against human HeLa cells; assay type: functional, cell-based
[9] = biological target: Mycothiol S-conjugate amidase (Mycobacterium tuberculosis, UniProt P9WJN1); test: Inhibition of Mycobacterium tuberculosis mycothiol-S-conjugate amidase
Mycothiol S-conjugate amidase, sequence (P9WJN1 whole entry): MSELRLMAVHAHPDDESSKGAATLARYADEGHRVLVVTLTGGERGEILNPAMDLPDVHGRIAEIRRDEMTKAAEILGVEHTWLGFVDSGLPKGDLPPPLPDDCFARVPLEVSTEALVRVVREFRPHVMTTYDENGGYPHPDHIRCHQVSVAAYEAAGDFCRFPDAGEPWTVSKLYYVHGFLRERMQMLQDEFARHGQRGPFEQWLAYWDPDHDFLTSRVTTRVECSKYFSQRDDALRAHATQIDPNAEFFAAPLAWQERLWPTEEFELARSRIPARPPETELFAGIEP

[10] = Immunosuppression of mouse spleen lymphocytes; assay type: functional, tissue-based; settings: lymphocyte
[11] = Cell cycle arrest in temperature sensitive mouse FT210 cells assessed as accumulation at M phase; assay type: functional, cell-based
[12] = Induction of mutagenesis in Salmonella Typhimurium assessed as drug level required by Ames assay; assay type: toxicity; settings: salmonella enterica subsp. enterica serovar typhimurium
[13] = Induction of mutagenesis in microsomes assessed as drug level required by Ames assay; design: species or system Microsome
Mus musculus = test: Neurotoxicity in ip dosed Swiss mouse assessed as drug level required for induction of tremor; assay type: toxicity, organism-based; settings: in vivo
[14] = Toxicity in ip dosed mouse; assay type: organism-based; settings: in vivo
[15] = Selectivity index, ratio of IC50 for rat L6 cells to IC50 for Trypanosoma brucei brucei
[16] = Ciliostatic activity against human respiratory epithelium assessed as required active concentration; assay type: functional
Homo sapiens = species: Homo sapiens; test: Induction of apoptosis in human HSC assessed as required active concentration; assay type: functional
[17] = Inhibition of NADPH oxidase
HUVEC = test: Cytotoxicity against HUVEC; assay type: cell-based; settings: Homo sapiens
A549 = test: Cytotoxicity against human A549 cells; assay type: functional, cell-based
[18] = Cytotoxicity against rainbow trout RTS11 cells; assay type: cell-based; settings: Oncorhynchus mykiss
[19] = Cytotoxicity against rainbow trout RTG2 cells; assay type: cell-based; settings: Oncorhynchus mykiss
[20] = Cytotoxicity against chinook salmon CHSE-214 cells; assay type: cell-based; settings: Oncorhynchus tshawytscha
Tetrahymena pyriformis = test: Antiprotozoal activity against Tetrahymena pyriformis; assay type: functional, organism-based
jurkat [21] = test: Activation of NF-kappaB in human jurkat cells assessed as active concentration required; assay type: cell-based
[22] = biological target: Acetolactate synthase catalytic subunit, mitochondrial (Saccharomyces cerevisiae S288c, UniProt P07342); test: Inhibition of Saccharomyces cerevisiae acetolactate synthase
Acetolactate synthase catalytic subunit, mitochondrial, sequence (P07342 whole entry): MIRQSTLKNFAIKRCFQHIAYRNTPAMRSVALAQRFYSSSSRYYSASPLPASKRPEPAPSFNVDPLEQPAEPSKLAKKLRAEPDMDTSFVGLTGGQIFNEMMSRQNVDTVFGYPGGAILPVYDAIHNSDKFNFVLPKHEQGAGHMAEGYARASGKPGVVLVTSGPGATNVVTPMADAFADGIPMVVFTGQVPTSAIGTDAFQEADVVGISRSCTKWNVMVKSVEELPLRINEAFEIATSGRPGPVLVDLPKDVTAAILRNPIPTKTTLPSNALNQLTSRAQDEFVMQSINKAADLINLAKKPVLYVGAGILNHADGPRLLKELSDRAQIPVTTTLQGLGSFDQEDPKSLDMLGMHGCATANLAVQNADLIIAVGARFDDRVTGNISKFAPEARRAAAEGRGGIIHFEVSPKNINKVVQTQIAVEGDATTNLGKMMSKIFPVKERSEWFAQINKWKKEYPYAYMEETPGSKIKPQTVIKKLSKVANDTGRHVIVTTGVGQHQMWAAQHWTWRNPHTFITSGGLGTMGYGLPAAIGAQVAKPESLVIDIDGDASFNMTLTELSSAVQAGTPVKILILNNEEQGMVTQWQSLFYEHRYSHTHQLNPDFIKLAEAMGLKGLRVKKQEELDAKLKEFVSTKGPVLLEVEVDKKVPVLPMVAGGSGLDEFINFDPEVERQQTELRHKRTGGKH

[23] = Inhibition of chymotrypsin-like activity of 20S proteasome activity
Macrophomina phaseolina [24] = test: Antimicrobial activity against Rhizoctonia bataticola; assay type: functional; settings: read-out: ED50 (the source's name)
Macrophomina phaseolina [25] = test: Antimicrobial activity against Macrophomina phaseolina; assay type: functional; settings: read-out: ED50 (the source's name)
[26] = tested on: Globisporangium debaryanum; test: Antimicrobial activity against Pythium debaryanum; assay type: functional; settings: read-out: ED50 (the source's name)
Pythium aphanidermatum = test: Antimicrobial activity against Pythium aphanidermatum; assay type: functional; settings: read-out: ED50 (the source's name)
Athelia rolfsii = test: Antimicrobial activity against Sclerotium rolfsii; assay type: functional; settings: Agroathelia rolfsii; read-out: ED50 (the source's name)
Rhizoctonia solani = test: Antimicrobial activity against Rhizoctonia solani; assay type: functional; settings: read-out: ED50 (the source's name)
Plasmodium falciparum = test: Antiparasitic activity against chloroquine-resistant Plasmodium falciparum K1; assay type: functional, organism-based
[27] = Toxicity in ip dosed ddY mouse; assay type: organism-based; settings: in vivo
Macrophage = test: Immunomodulatory activity in macrophage assessed as inhibition of phagocytosis; assay type: functional; settings: read-out: ED50 (the source's name)
[28] = Inhibition of Su(var)3-9
[29] = biological target: Thioredoxin reductase 1, cytoplasmic (Homo sapiens, UniProt Q16881); test: Inhibition of thioredoxin reductase 1
Thioredoxin reductase 1, cytoplasmic, sequence (Q16881 whole entry): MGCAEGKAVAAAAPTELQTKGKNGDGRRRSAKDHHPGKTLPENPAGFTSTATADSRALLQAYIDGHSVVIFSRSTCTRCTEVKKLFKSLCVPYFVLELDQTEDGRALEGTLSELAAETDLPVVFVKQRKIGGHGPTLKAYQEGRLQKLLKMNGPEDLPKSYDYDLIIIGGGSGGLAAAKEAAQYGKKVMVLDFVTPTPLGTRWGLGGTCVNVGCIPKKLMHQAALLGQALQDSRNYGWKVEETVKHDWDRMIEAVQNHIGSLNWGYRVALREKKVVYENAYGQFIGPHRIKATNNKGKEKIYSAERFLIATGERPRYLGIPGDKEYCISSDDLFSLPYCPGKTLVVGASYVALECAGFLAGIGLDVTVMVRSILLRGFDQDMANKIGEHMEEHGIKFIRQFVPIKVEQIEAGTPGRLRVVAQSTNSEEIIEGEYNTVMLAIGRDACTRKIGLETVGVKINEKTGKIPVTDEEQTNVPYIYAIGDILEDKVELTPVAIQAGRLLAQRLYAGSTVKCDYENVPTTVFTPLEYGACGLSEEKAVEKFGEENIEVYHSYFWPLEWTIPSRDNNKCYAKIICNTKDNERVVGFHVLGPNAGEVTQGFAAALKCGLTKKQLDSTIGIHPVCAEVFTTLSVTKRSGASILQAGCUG

[30] = Inhibition of tubulin polymerization assessed as blockade of microtubule assembly at 250 uM; design: scale not given: the % may be the effect or the level left

CS[C@]1(CO)C(=O)N2c3c(O)cccc3C[C@@]2(SC)C(=O)N1C [DEHYDROBIS(METHYLTHIO)GLIOTOXIN]
IC50 [1]: 8.5 µM
IC50 (Rhodesain): 19.5 µM
IC50 [2]: > 50 µM
IC50 (Jurkat [3]): 141 µM
Ratio IC50 [4]: 16.6 ratio
IC50 [5]: 16.9 µM

C/C=C(\C)[C@@H]1C=C[C@@H]2C[C@H](C)C[C@H](C)C2[C@@H]1C(=O)C1=CC(C)(OCCCC)NC1=O (stereo partly specified) [ASCOSALIPYRROLIDINONE A]
MIC [6]: 30 µg/mL (≈ 72.5 µM)

COc1ccc2c(c1)NC(=O)[C@@]21C[C@H]2C(=O)N3CCC[C@H]3C(=O)N2[C@H]1C=C(C)C [SPIROTRYPROSTATIN A]
IC50 [1]: > 50 µM
IC50 (MDA-MB-468): 110 µM
IC50 (MCF7): > 300 µM

COc1ccc2c(c1)N(C)C(=O)[C@@]21C[C@H]2C(=O)N3CCC[C@H]3C(=O)N2[C@H]1C=C(C)C [N-METHYLSPIROTRYPROSTATIN A]
IC50 [1]: > 50 µM

CS[C@]1(COC(C)=O)C(=O)N2[C@H]3C(=CC=C[C@@H]3OC(C)=O)C[C@@]2(SC)C(=O)N1C [DIACETYLBIS(METHYLTHIO)GLIOTOXIN]
IC50 [1]: 35.5 µM
IC50 (Rhodesain): > 50 µM
IC50 [2]: > 50 µM
IC50 (Jurkat [3]): 56 µM
Ratio IC50 [4]: 1.6 ratio

Cc1ccc(/C(=N\NC(N)=S)c2cc(C(F)(F)F)cc(C(F)(F)F)c2)cc1 [THIOSEMICARBAZONE STANDARD]
EC50 [1]: 1.3 µM
IC50 (Rhodesain): 0.044 µM
IC50 [2]: 15 µM
EC50 (HEK293): 25 µM
selectivity ratio [7]: 19

COc1ccc2c(c1)N(C)C(=O)[C@@]21C=C2C(=O)N3CCC[C@H]3C(=O)N2[C@H]1C=C(C)C [N-METHYL-6-METHOXYSPIROTRYPROSTATIN B]
IC50 [1]: > 50 µM

CN1C(=O)[C@]23SS[C@@]1(C)C(=O)N2[C@H]1Nc2ccccc2[C@@]1([C@@]12c4ccccc4N[C@@H]1N1C(=O)[C@]4(CO)SS[C@]1(C(=O)N4C)[C@H]2O)[C@@H]3O [VERTICILLIN B]
Activity [8]: 109%
IC50 [1]: 0.007 µM
IC50 (Rhodesain): > 50 µM
IC50 [2]: > 50 µM
IC50 (Jurkat [3]): < 0.6 µM
EC50 (HeLa; read-out: ED50 (the source's name)): 0.28 µM

C/C(=C\Cc1c(O)c(Cl)c(C)c(C=O)c1O)CC/C=C(\C)[C@@H]1CC(=O)C(C)(C)O1 [ASCOFURANONE]
IC100 [1]: 0.03 µM

CS[C@]1(Cc2c[nH]c3ccccc23)NC(=O)[C@](CO)(SC)N(C)C1=O [CHETOSEMINUDIN B]
IC50 [1]: 5.9 µM
IC50 (Rhodesain): > 50 µM
IC50 [2]: > 50 µM
IC50 (Jurkat [3]): 94.9 µM
Ratio IC50 [4]: 16.1 ratio
IC50 [9]: 70 µM
IC50 [10]: 24 µM

CS[C@]1(COC(C)=O)C(=O)N2[C@H]3C(=CC=C[C@@H]3O)C[C@@]2(SC)C(=O)N1C
IC50 [1]: > 50 µM

N=C(N)c1ccc(OCCCCCOc2ccc(C(=N)N)cc2)cc1 [PENTAMIDINE]
IC50 [1]: 0.007 µM

COc1ccc2c3c4n(c2c1)[C@H](C=C(C)C)OOC(C)(C)C[C@@H]4N1C(=O)[C@@H]2CCCN2C(=O)[C@]1(O)[C@H]3O [VERRUCULOGEN]
IC50 [1]: 12.9 µM
IC50 (Rhodesain): 45 µM
IC50 [2]: > 50 µM
IC50 (Jurkat [3]): 97 µM
selectivity ratio [4]: 7.5
MIC [11]: 12.2 µM (≈ 6.24 µg/mL)
Activity [12]: 1 µM
Activity [13]: 1 µM
Activity (Mus musculus): 0.78 mg/kg
LD50 [14]: 2.4 mg/kg

Nc1nc(N)nc(Nc2ccc([As]3SCC(CO)S3)cc2)n1 (stereo unspecified) [MELARSOPROL]
IC50 [1]: 0.004 µM
selectivity ratio [15]: 1940

CN1C(=O)[C@]23CC4=CC=C[C@H](O)[C@H]4N2C(=O)[C@@]1(CO)SS3 [GLIOTOXIN]
Activity [16]: 30.7 µM
Activity (Homo sapiens): 0.3 µM
IC50 [17]: 9 µM
IC50 [1]: 0.01 µM
IC50 (Rhodesain): > 50 µM
IC50 [2]: 0.5 µM
IC50 (Jurkat [3]): < 1 µM
IC50 (HeLa): 2.45 µM
IC50 (HUVEC): 0.123 µM
IC50 (A549): 0.003 µM
EC50 [18]: 1.35 µM
EC50 [19]: 2 µM
EC50 [20]: 1.65 µM
EC50 (Tetrahymena pyriformis): 0.38 µM
IC50 [5]: 93 µM
IC50 [9]: 50 µM
Activity (jurkat [21]): 300 nM
IC50 [22]: 0.2 µM
IC50 [23]: 10 µM
EC50 (Macrophomina phaseolina [24]): 0.9 µM
EC50 (Macrophomina phaseolina [25]): 5.4 µM
EC50 [26]: 90.1 µM
EC50 (Pythium aphanidermatum): 36.9 µM
EC50 (Athelia rolfsii): 6.47 µM
EC50 (Rhizoctonia solani): 9.75 µM
IC50 (Plasmodium falciparum): 3.6 µM
LD50 [27]: 17.9 mg/kg
EC50 (Macrophage): 0.104 µM

CN1C(=O)[C@@]23C[C@]4([C@]56C[C@@]78SS[C@@](CO)(C(=O)N7[C@H]5Nc5ccccc56)N(C)C8=O)c5ccccc5N[C@@H]4N2C(=O)[C@]1(CO)SS3 [CHAETOCIN]
IC50 [1]: 0.002 µM
IC50 (Rhodesain): > 50 µM
IC50 [2]: > 50 µM
IC50 (Jurkat [3]): < 0.6 µM
IC50 (A549): < 0.025 µM
IC50 [28]: 0.6 µM
IC50 [29]: 4.6 µM

CS[C@]1(C)NC(=O)[C@](Cc2c[nH]c3ccccc23)(SC)NC1=O [3,6 BISMETHYL(THIOCYCLO)ALANYLTRYPTOPHYL]
IC50 [1]: > 50 µM

COc1ccc2c3c([nH]c2c1)[C@H](C=C(C)C)N1C[C@@H]2CCCN2C[C@@]1(O)[C@H]3O [CYCLOTRYPROSTATIN A]
Activity [30]: 66.4%
IC50 [1]: > 50 µM

CS[C@]1(CO)C(=O)N2[C@H]3C(=CC=C[C@@H]3OC(C)=O)C[C@@]2(SC)C(=O)N1C
IC50 [1]: 6.5 µM
IC50 (Rhodesain): 12.8 µM
IC50 [2]: > 50 µM
IC50 (Jurkat [3]): 125 µM
Ratio IC50 [4]: 19.2 ratio

CS[C@]1(CO)C(=O)N2[C@H]3C(=CC=C[C@@H]3O)C[C@@]2(SC)C(=O)N1C [BIS(DETHIO)BIS(METHYLTHIO)GLIOTOXIN]
IC50 [1]: 40.2 µM
IC50 (Rhodesain): > 50 µM
IC50 [2]: > 50 µM
IC50 (Jurkat [3]): 140 µM
selectivity ratio [4]: 3.5
IC50 (HeLa): > 2.81 µM
IC50 (HUVEC): 1.12 µM
IC50 [5]: 8.4 µM
LD50 [27]: > 500 mg/kg
EC50 (Macrophage): > 10 µM

COc1ccc2c(c1)NC(=O)[C@@]21C=C2C(=O)N3CCC[C@H]3C(=O)N2[C@H]1C=C(C)C [SPIROTRYPROSTATIN B]
IC50 [1]: 5.7 µM
IC50 (Rhodesain): > 50 µM
IC50 [2]: > 50 µM
IC50 (Jurkat [3]): 21.1 µM
Ratio IC50 [4]: 3.7 ratio

N#Cc1nc(NCc2ccc(Cl)c(Cl)c2)c2ncn(CCCO)c2n1
EC50 [1]: 0.11 µM
EC50 (HEK293): 25 µM
selectivity ratio [7]: 227
